Test results taken from patent US20110269811A1, “INHIBITORS OF SEMICARBAZIDE-SENSITIVE AMINE OXIDASE (SSAO) AND VAP-1 MEDIATED ADHESION USEFUL FOR TREATMENT AND PREVENTION OF DISEASES” (priority 2006, published 2011).
Structures can show the parent of a compound that is named as a salt.

Target: T1, Recombinant human MAO-A (Homo sapiens, UniProt P21397)
T1 construct: purchased BD Biosciences (MA, USA)
T1 sequence (P21397 1-527): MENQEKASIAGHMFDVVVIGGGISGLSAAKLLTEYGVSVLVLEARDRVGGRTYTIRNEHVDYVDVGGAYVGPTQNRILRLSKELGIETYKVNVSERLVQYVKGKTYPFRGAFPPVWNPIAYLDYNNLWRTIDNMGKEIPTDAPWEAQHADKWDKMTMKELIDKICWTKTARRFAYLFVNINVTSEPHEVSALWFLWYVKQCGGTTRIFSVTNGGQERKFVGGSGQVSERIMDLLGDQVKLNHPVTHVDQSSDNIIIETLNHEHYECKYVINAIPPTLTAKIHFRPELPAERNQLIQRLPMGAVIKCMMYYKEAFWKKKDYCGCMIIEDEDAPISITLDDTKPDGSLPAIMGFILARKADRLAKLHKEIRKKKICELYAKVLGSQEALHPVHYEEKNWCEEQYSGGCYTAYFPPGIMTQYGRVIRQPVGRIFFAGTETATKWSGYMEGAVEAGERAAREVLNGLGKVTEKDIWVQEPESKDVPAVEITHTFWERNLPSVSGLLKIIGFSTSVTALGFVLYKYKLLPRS
Assay: MAO-A activity, colorimetric method, tyramine substrate
Assay type: biochemical
Details: for Specificity of SSAO on MAO-A: ratio of IC50 for MAO-A to IC50 for SSAO; for IC50: recombinant human MAO-A
Experimental: The specificities of the different SSAO inhibitors was tested by determining their abilities to inhibit MAO-A and MAO-B activities in vitro. Recombinant human MAO-A and human MAO-B enzymes were obtained from BD Biosciences (MA, USA). MAO activity was measured using the colorimetric method essentially as described (Holt, A. et al. (1997) Anal. Biochem. 244: 384). A pre-determined amount of inhibitor diluted in 0.2M potassium phosphate buffer, pH 7.6, was added to each well, if required. The amount of inhibitor varied in each assay but was generally at a final concentration of between 1 nM and 1 mM. Controls lacked inhibitor. The following agents were then added to a final reaction volume of 200 μL in 0.2M potassium phosphate buffer, pH 7.6: 0.04 mg/ml of MAO-A or 0.07 mg/ml MAO-B enzyme, 15 μL of 10 mM tyramine substrate (for MAO-A), or 15 μL 100 mM benzylamine substrate (for MAO-B), and 50 μL of freshly made chromogenic solution. The chromogenic solution contained 750 μM vanillic acid (Sigma#V-2250), 400 μM 4-aminoantipyrine (Sigma #A-4328) and 12 U/mL horseradish peroxidase (Sigma #P-8250) in order to cause a change of 0.5 OD A490 nm/h. This was within the linear response range for the assay. The plates were incubated for 60 min at 37° C. The increase in absorbance, reflecting MAO activity, was measured at 490 nm using microplate spectrophotometer (Power Wave 40, Bio-Tek Inst.). Inhibition was presented as percent inhibition compared to control after correcting for background absorbance and IC50 values calculated using GraphPad Prism software. Clorgyline and pargyline (inhibitors of MAO-A and -B, respectively) at 1 μM, were added to some wells as positive controls for MAO inhibition. […] The compounds described in the present invention are therefore expected to have therapeutic utility in the treatment of diseases and conditions in which the activity of SSAO/VAP-1 plays a role, that is, in SSAO/VAP-1 mediated diseases and conditions.

Compound | Specificity of SSAO on MAO-A | IC50 [µM]
CCOc1ccc(C/C(=C\F)CN)cc1.Cl [Compound I-2-E, (E)-3-Fluoro-2-(4-ethoxybenzyl)-allylamine hydrochloride] | 9400 | 85
Cl.NC/C(=C\F)Cc1ccc(Cl)cc1 [Compound I-3-Z, (Z)-2-(4-Chlorobenzyl)-3-fluoro-allylamine hydrochloride] | 3250 | 91
COc1cccc(C/C(=C/F)CN)c1.Cl [Compound I-5-Z, (Z)-3-Fluoro-2-(3-methoxybenzyl)allylamine hydrochloride] | 2643 | 74
CC(C)Oc1ccc(C/C(=C\F)CN)cc1 [Compound I-8-E, (E)-3-Fluoro-2-(4-isopropoxybenzyl)allylamine hydrochloride] | 4211 | 48
CC(C)Oc1ccc(C/C(=C/F)CN)cc1.Cl [Compound I-8-Z, (Z)-3-Fluoro-2-(4-isopropoxybenzyl)allylamine hydrochloride] | 7000 | 35
CSc1ccc(C/C(=C/F)CN)cc1.Cl [Compound I-9-Z, (Z)-3-Fluoro-2-(4-methylthiobenzyl)allylamine hydrochloride] | 8385 | 109
CC(C)c1ccc(C/C(=C\F)CN)cc1.Cl [Compound I-14-E, (E)-3-Fluoro-2-(4-isopropylbenzyl)allylamine hydrochloride] | 5923 | 77
CC(C)c1ccc(C/C(=C/F)CN)cc1.Cl [Compound I-14-Z, (Z)-3-Fluoro-2-(4-isopropylbenzyl)allylamine hydrochloride] | 11250 | 90
CC(C)(C)c1ccc(C/C(=C/F)CN)cc1.Cl [Compound I-15-Z, (Z)-3-Fluoro-2-(4-tert-butylbenzyl)allylamine hydrochloride] | 17000 | 119
Cl.NC/C(=C\F)Cc1cccc(F)c1 [Compound I-19-Z, (Z)-3-Fluoro-2-(3-fluorobenzyl)allylamine hydrochloride] | 1360 | 34
NC/C(=C\Cl)CCc1cc(F)cc(C(F)(F)F)c1.O=C(O)C(F)(F)F [Compound I-40-Z, (Z)-3-Chloro-2-(3-fluoro-5-trifluoromethylphenylethyl)allylamine trifluoroacetate] | 687 | 632
COc1ccc(CC/C(=C\Cl)CN)cc1.Cl [Compound I-44-Z, (E)-3-Chloro-2-(4-methoxyphenylethyl)allylamine hydrochloride] | 146 | 105
CCOc1ccc(CC/C(=C\Cl)CN)cc1.Cl [Compound I-45-Z, (E)-3-Chloro-2-(4-ethoxyphenylethyl)allylamine hydrochloride] | 143 | 20
CCCCOc1ccc(CC/C(=C\Cl)CN)cc1.Cl [Compound I-47-E, (E)-3-Chloro-2-(4-n-butoxyphenylethyl)allylamine hydrochloride] | 794 | 135
NC/C(=C\F)CCc1ccc(F)cc1 [Compound I-99-Z, (Z)-2-(fluoromethylene)-4-(4-fluorophenyl)butan-1-amine] | 177 | 23
COc1ccc(CC/C(=C/F)CN)cc1.Cl [Compound I-102-Z, (Z)-3-Fluoro-2-[2-(4-methoxyphenyl)-ethyl]-allylamine hydrochloride] | 21 | 0.62
NC/C(=C\F)CCc1cc(F)cc(C(F)(F)F)c1.O=C(O)C(F)(F)F [Compound I-109-Z, (Z)-3-Fluoro-2-(3-fluoro-5-trifluoromethylphenylethyl)allylamine trifluoroacetate] | 78 | 21
Cl.NC/C(F)=C\Cc1ccc(F)cc1 [II-5-E, (E)-2-Fluoro-4-(4-fluorophenyl)-2-butenylamine hydrochloride] | >3333 | > 1000
Cc1cccc(C/C=C(/F)CN)c1.Cl [II-6-E, (E)-2-Fluoro-4-(3-methylphenyl)-2-butenylamine hydrochloride] | 7692 | 
Cl.NC/C(F)=C\Cc1cccc(F)c1 [II-7-E, (E)-2-Fluoro-4-(3-fluorophenyl)-2-butenylamine hydrochloride] | 4545 | 
COc1cccc(C/C=C(/F)CN)c1.Cl [II-8-E, (E)-2-Fluoro-4-(3-methoxyphenyl)-2-butenylamine hydrochloride] | 50000 | 1100
Cl.NC/C(F)=C\Cc1ccccc1 [II-9-E, (E)-2-Fluoro-4-phenyl-2-butenylamine hydrochloride] | 12120 | 1200
Cl.NC/C(F)=C\Cc1cccc(OC(F)(F)F)c1 [II-10-E, (E)-2-Fluoro-4-(3-trifluoromethoxyphenyl)-2-butenylamine hydrochloride] | 48330 | 870
CN(C)c1cccc(C/C=C(/F)CN)c1.Cl [II-11-E, (E)-2-Fluoro-4-(3-dimethylaminophenyl)-2-butenylamine hydrochloride] | 2600 | 286
CSc1cccc(C/C=C(/F)CN)c1.Cl [II-13-E, (E)-2-Fluoro-4-(3-methylthiophenyl)-2-butenylamine hydrochloride] | 100000 | 
CS(=O)(=O)c1cccc(C/C=C(/F)CN)c1.Cl [II-14-E, (E)-2-Fluoro-4-(3-methanesulfonylphenyl)-2-butenylamine hydrochloride] | 14290 | 
Cl.NC/C(F)=C\Cc1cccc(SC(F)(F)F)c1 [II-15-E, (E)-2-Fluoro-4-(3-trifluoromethylthiophenyl)-2-butenylamine hydrochloride] | >34780 | > 800
COc1cccc(C/C(C)=C(/F)CN)c1 [II-18-E, hydrochloride] | >3448 | > 1000
COc1cccc(OC/C=C(/F)CN)c1 [II-19-E, (E)-2-fluoro-4-(3-methoxyphenoxy)but-2-en-1-amine] | >6250 | > 1000
